According to US12618044B2, “Specification of functional cranial placode derivatives from human pluripotent stem cells” (MEMORIAL SLOAN-KETTERING CANCER CENTER, priority 2013, dated 2026):
Where no end group is shown, it is not given here.

Key:
Type in all cases: cell-based, human
hESC = experiment: Placode induction from hESC (N-SB versus PIP, SIX1 expression); settings: for placode fate: high concentrations, starting at day 3 of PIP
Experimental: A timed withdrawal of the BMP inhibitor Noggin during N-SB differentiation was also tested to determine if placodal fates could be induced via derepressing endogenous BMP signaling. A time course analysis was performed during which Noggin was removed at different time points of the N-SB protocol (FIG. 28A).
Withdrawal of the BMP inhibitor noggin during N-SB differentiation may enhance the emergence of placodal fates by de-repressing endogenous BMP signaling. To this end, a time course study was performed by removing noggin at different time points of the NSB protocol (FIG. 11A) while monitoring the induction of placodal marker (FIG. 11B) trophoectodermal, neurectodermal by qRT-PCR analysis at day 11 of differentiation. Withdrawal of noggin at day 2 or 3 of differentiation yielded efficient induction of Six1 while noggin withdrawal at day 1 of differentiation lead to the induction of Eya1 in the absence of Six1 expression.
Neural Induction and placode induction: Feeder-free neural induction was carried out as previously described (Chambers et al., 2009). Briefly, hESCs cultures were disaggregated using accutase for 20 minutes, washed using hESCs media and pre-plated on gelatin for 1 hour at 37° C. in the presence of ROCK inhibitor to remove MEFs. The non-adherent hESCs were washed and plated on matrigel at a density of 60,000 cells/cm2 on matrigel (BD) coated dishes in MEF conditioned hESCs media (CM) spiked with 10 ng/mL of FGF-2 and ROCK-inhibitor. The ROCK inhibitor was withdrawn after 24 hours, and hESCs were allowed to expand in CM for 2 days or until they were 95% confluent. The initial differentiation media conditions included knock out serum replacement (KSR) media with 10 μM TGF-β inhibitor (SB431542, Tocris) and 250 ng/mL of Noggin (R&D). Upon day 5 of differentiation, increasing amounts of N2 media (25%, 50%, and 75%) were added to the KSR media every two days while maintaining […] of Noggin and TGF-β inhibitor. Similar results could be obtained when using KSR-free conditions (E6 medium (Chen et al., 2011)) following adjustments in BMP signaling; data not shown). For placode induction, Noggin was removed at day3 of differentiation. In some experiments, BMP-4 (R&D 50 ng/ml), Noggin (R&D 250 ng/ml), DKK-1 (R&D 100 ng/ml), FGF8 (R&D 50 ng/ml), SU5402 (Tocris 10 μM), Wnt-3a (R&D 50 ng/ml), DAPT (Tocris, 10 μM), CHIR99021 (Stemgent, 3 μM), Cyclopamine (Tocris, 10 μM), Sonic Hedgehog (C25II-R&D 100 ng/ml), and Purmorphamine (Stemgent, 1 μM), were added.
Microscopy, antibodies, and flow cytometry: Cells were fixed using 4% paraformaldehyde for 15 minutes, washed with PBS, permeabilized using 0.3% Triton X in PBS, and blocked using 1% BSA. Primary antibodies used for microscopy included PAX6 (Covance, DSHB), TUJ1 (Covance), BRN3A (Chemicon), AP2a (DSHB), HNK1 (Sigma), PAX3 (DSHB), SIX1 (ABR, Atlas), ISL1 (DSHB), PERIPHERIN (Santa Cruz), GSU (gift A. McNeilly), CRYAB (Chemicon), DACH1 (Proteintech), EYA1 (gift Kawakami), E-CADHERIN (Abcam), FSH (gift A. McNeilly), GATA2 (Abcam), chick GFP (Abcam), hNCAM (Santa Cruz), GLUTAMATE (Sigma), KRT14 (Labvision), SIX6 (Atlas), LHX3 (Abcam), OVOL2 (Aviva), TFAP2A (DSHB), FOXG1 (gift E. Lai), hCA (Stem Cells), and Ki67 (Sigma). Appropriate Alexa 488, Alexa 568, Alexa 647 secondary antibodies (Molecular Probes) and/or DAPI counterstaining was used for visualization. For Flow Cytometry, cells were mechanically dissociated after exposure to accutase for 20 min at 25° C. To eliminate dead cell populations in FACS analysis, we used DAPI or 7-AAD according to manufacturer's recommendation. Cells were analyzed using FACScan (Becton Dickinson) and FlowJo software (Tree Star, Inc.).

[1] = tested on: SIX1::H2B-GFP reporter cells; experiment: PIP-E6 placode induction in E8/E6 media
Excerpt: PIP protocol using E8/E6 cell culture media: E8/E6 cell culture media (Essential8™/Essential6™, Nat Methods. 2011 May; 8(5):424-9) comprises the ingredients DMEM/F12, ascorbic acid, selenum, insulin, NaHCO3, transferrin, FGF2 and TGFβ. […] The present example describes a modified PIP protocol that utilizes the BMP deficient E8/E6 media.
A Six1 knock in GFP reporter cell line (SIX1::H2B-GFP) was developed to monitor when cells have been transformed to a placode fate. (FIGS. 41A-41E). Culturing the reporter cells in E8/E6 media according to the KSR PIP protocol described herein, in which cells were cultured in media comprising the SMAD inhibitors SB431542 and LDN193189, wherein LDN193189 was withdrawn after 2 days of culture, yielded low levels of placode cells after 11 days of culture. (FIGS. 42A-42B). BMP4, which is not present in E8/E6 media, is necessary for cells to differentiate into non-neural ectoderm and placode, as evidenced by expression of the marker AP2. (FIGS. 43A-43C). […] (FIGS. 44A-44C). […] (FIGS. 45A-45B). […] (FIGS. 46 and 47). Although the yield of induced placode cells was low using the PIP-E6 protocol, the induction was highly consistent compared to the KSR PIP protocol. (FIG. 48).
In order to make the trigeminal placode fate the default fate when culturing using the PIP-E6 protocol, PIP-E6 was modified by adding CHIR (Wnt activator) to the culture protocol. […] (FIGS. 49A-49B). FIG. 50 depicts the pituitary, lens and trigeminal placodes that can be induced using the PIP-E6 culture protocol.

SIX1::GFP cells [2] = experiment: High throughput screen for compounds that promote placode induction; settings: added at day 3, imaged at day 6
Experimental: High throughput screen for compounds that promote placode induction: SIX1::GFP cells were cultured according to the PIP-E6 protocol. 1280 test compounds were screened for their ability to enhance placode induction. Each test compound was added to the cell culture media at day 3, and cells were imaged to determine the level of placode induction at day 6. (FIG. 60).

SIX1::GFP cells [3] = experiment: PIP-E6 pituitary induction and hormone release; settings: for number of putative pituitary stem cells (Ki67 and Sox2): days 6-14
Experimental: Induction of anterior pituitary gland cells: Pituitary placode cells were induced by culturing SIX1::GFP cells according to the PIP-E6 protocol, wherein pituitary factors SHH, FGF8, FGF10 and/or hypothalamus CM were supplemented in the culture media from days 6-15.
Induction of anterior pituitary gland cells: SIX1::GFP hPSCs were cultured according to a modified PIP-E6 protocol, wherein pituitary factors such as FGF8, FGF10 or SHH, etc., were included in the culture media from days 6-14. Cells were sorted based on expression of SIX1::GFP, and were replated at a concentration of 10,000 cells/cm^2 on PO/L/F, and were incubated with small molecule/growth factors for 2 weeks. (FIG. 68). […] (FIG. 69).

pre-placode cells = experiment: Lens placode specification (PITX3 qRT-PCR); settings: added days 7-11, read at day 16
Experimental: The impact of four developmental signaling pathways on lens placode specification was tested by using activators and inhibitors of BMP, FGF, WNT, and Hedgehog signaling. To quantify the induction of lens placode fate, the lens precursor marker PITX3 expression was monitored at day 16 of differentiation (FIG. 37B). […] A role for BMPs and FGFs has been previously proposed in developmental studies in the chick (Sjödal et al., 2007). […] The characteristic layering of lens fibers (FIG. 36H, right panel) mimicked the structural properties of developing lens in vivo.

hESC derived FP = experiment: A/P respecification of hESC derived FP by caudalizing factors
Experimental: For MS5 induction, established methods previously reported were used (Perrier et al., 2004). Feeder free neural induction was carried out as previously described (Chambers et al., 2009). Briefly, hESCs cultures were disaggregated using accutase for 20 minutes, washed using hESCs media and pre-plated on gelatin for 1 hour at 37° C. in the presence of ROCK inhibitor to remove MEFs. The nonadherent hESCs were washed and plated on matrigel at a density of 20,000 cells/cm2 on matrigel (BD) coated dishes in MEF conditioned hESCs media (CM) spiked with 10 ng/mL of FGF-2 and ROCK-inhibitor. The ROCK inhibitor was withdrawn, and hESCs were allowed to expand in CM for 3 days or until they were nearly confluent. The initial differentiation media conditions included knock out serum replacement (KSR) media with […] TGF-b inhibitor (SB431542, Tocris) and 500 ng/mL of Noggin (R&D). Upon day 5 of differentiation, increasing amounts of N2 media (25%, 50%, 75%) was added to the KSR media every two days while maintaining 500 ng/mL of Noggin and TGF-b inhibitor. For FP induction, Sonic C25II was added at 200 ng/ml. In some experiments, DKK-1 (R&D 100 ng/ml) FGF8 (R&D 50 ng/ml), Wnt-1 (Peprotech 50 ng/ml) and Retinoic Acid (R&D 1 uM) were added.
The inventors contemplated the use of SIX6 as a putative marker of anterior FP identity. Thus SIX6 status of the hESC derived FP was used to mark respecification in response to known caudalizing agents such as FGF8, Wnt-1, and Retinoic Acid. Each of these caudalizing factors was added in combination with SHH and the resulting tissue was assessed for expression of the FP markers FOXA2 and NETRIN-1, the AN marker BF1, and putative anterior FP marker SIX6. FP generation was found not compromised in the presence of caudalizing factors.
The inventors discovered that different factors had varied effects on marker expression (FIG. 20C).
As mentioned above, studies had identified different enhancers that directed SHH expression to different A/P region along ventral axis (Jeong et al., 2008). […] In the absence of caudalizing factors (SHH C25II alone), LacZ expression was observed herein following transfection with the SBE2 but not the SBE1 enhancer supporting the hypothesis that hESC derived FP is anterior by default (FIG. 20D). In contrast SBE2 activity was abolished upon treatment with Wnt1 or FGF8 while SBE1 activity was induced under these conditions.

Cc1c[nH]c(-c2cnc(NCCNc3ccc(C#N)cn3)nc2-c2ccc(Cl)cc2Cl)n1 [CHIR99021]
placode fate (hESC): suppressed placode
default placode fate ([1]; days 2-4 of the PIP-E6 protocol): induction of trigeminal placodes

O.c1cnc2c(c1)ccc1cccnc12 [Phenanthroline monohydrate]
placode induction (SIX1::GFP cells [2]): promoting placode induction

FGF2: growth factor
number of putative pituitary stem cells (Ki67 and Sox2) (SIX1::GFP cells [3]): may increase

somatocrinin: external stimulus causing growth hormone release (YADAIFTNSYRKVLGQLSARKLLQDIMSRQQGESNQERGARARL; ends and bridges not checked; UniProt P01286 32-75, looked up)
growth hormone (GH) release (SIX1::GFP cells [3]; hormone expressing cells): released growth hormone (GH)

CN1CCC(c2c[nH]c3ccc(O)cc23)CC1 [BRL-54443]
placode induction (SIX1::GFP cells [2]): promoting placode induction

Cc1c[nH]c(/C=C2\C(=O)Nc3ccccc32)c1CCC(=O)O [SU5402]
TFAP2A expression (hESC; day 3-11 of PIP): maintaining
emergence of SIX1+ clusters (hESC; day 3-11 of PIP): suppressed
placode marker (SIX1) gene expression (hESC; day 11): complete loss
KRT14 mature keratinocyte marker (hESC; long-term cultures (day 42-60)): robust induction
PITX3 expression (pre-placode cells): significantly induced

B1: FGF8: caudalizing factor / pituitary patterning factor (protein, UniProt P55075 23-233, looked up)
Fibroblast growth factor 8: QEGPGRGPALGRELASLFRAGREPQGVSQQHVREQSLVTDQLSRRLIRTYQLYSRTSGKHVQVLANKRINAMAEDGDPFAKLIVETDTFGSRVRVRGAETGLYICMNKKGKLIAKSNGKGKDCVFTEIVLENNYTALQNAKYEGWYMAFTRKGRPRKGSKTRQHQREVHFMKRLPRGHHTTEQSLRFEFLNYPPFTRSLRGSQRTWAPEPR
ASCL1 expression (hESC; pre-placode cells): enriches
SBE1 activity (hESC derived FP; SHH enhancer LacZ construct): induced
SBE2 activity (hESC derived FP; SHH enhancer LacZ construct): abolished
SIX6 expression (hESC derived FP; in combination with SHH): significant reduction
number of putative pituitary stem cells (Ki67 and Sox2) (SIX1::GFP cells [3]): may increase

B2: BMP4: recombinant bone morphogenetic protein-4, activator of BMP signaling (protein, UniProt P12644 293-408, looked up)
Bone morphogenetic protein 4: SPKHHSQRARKKNKNCRRHSLYVDFSDVGWNDWIVAPPGYQAFYCHGDCPFPLADHLNSTNHAIVQTLVNSVNSSIPKACCVPTELSAISMLYLDEYDKVVLKNYQEMVVEGCGCR
placode fate (hESC): suppressed placode
CDX2 induction (hESC; in the presence of SB): triggered induction of CDX2
PITX3 expression (pre-placode cells): significantly induced
cell fate induced ([1]; 5 ng/ml, with SB431542, withdrawn after 3 days): placode development
yield of placode precursors ([1]; 5 ng/ml, withdrawn after 3 days versus 1 or 2 days, 6 total days): highest yield of placode precursors
cell fate induced ([1]; 20 ng/ml): induction of non-neural ectoderm
